Measurements: patent EP1923473B1, “Bis-diglycolamides (BISDGA) as new extractants for lanthanides [Ln(III)] and actinides [An(III)] from aqueous high-level wastes” (Universidad Autónoma de Madrid, priority 2006, dated 2008)

Key:
[1] = Batch extraction from simulated HLLW from the PUREX process; assay type: physicochemical; conditions: 0.1 mol/L in TPH/1-octanol (90:10)
Description: (§1) The feed solution used for the extraction tests is a simulated solution of an HLLW from the PUREX process, the composition of which is shown in Table 4. Table 4: Composition of the simulated HLLW-PUREX solution used for the extraction tests
(§2) The composition of the HLLW corresponds to a burn-up of 33 GWd/tHM, the generated volume of HLLW being 5000 1/t of fuel. The feed was spiked with ^241Am, ^244Cm, ^252Cf and ^152Eu. Oxalic acid and N-(2-hydroxyethyl)ethylenediaminotriacetate (HEDTA) were also added before the extraction tests.
(§3) 500 µL of the aqueous and organic phases were spiked with 10 µL of a tracer solution containing 241Am, 244Cm, 252Cf and ^152Eu, and were equilibrated for 10 minutes while they were stirred vigorously in a vortex stirrer. After the separation of the phases by centrifugation, 200 µL aliquots of each phase were taken for the determination of the concentration of ^241Am and ^152Eu using a high-purity germanium spectrometer system (EG&G Ortec). The nuclides ^241Am, ^244Cm and ^252Cf were measured by alpha spectrometry with an α-Analyst device of the company Canberra-Packard GmbH, Germany.
(§4) The concentrations of the stable elements were determined by mass spectrometry with an inductively coupled plasma source (ICP-MS) in a DRC Elan 6100 device of Perkin Elmer Sciex. The aqueous phase was measured directly after the appropriate dilution. The organic phase was analyzed after having mineralized the organic matter by microwave acid digestion and subsequent dilution.
(§5) The distribution coefficients were calculated for each element according to section C).
Extraction experiments were carried out with said simulated HLLW in a pure form and also adding oxalic acid and HEDTA to it.

[2] = as above; assay type: physicochemical; conditions: 0.1 mol/L in TPH/1-octanol (90:10); remark: listed apart in the source
Description: as §1, §2, §3, §4, §5
A 0.1 mol/L solution of compound 4 in the "TPH/1-octanol (90:10)%vol" mixture was prepared. Extraction experiments were carried out with said simulated HLLW in a pure form and also adding oxalic acid and HEDTA to it. These complexing agents have shown to be effective in the DIAMEX process for the complexing of Mo, Zr (H2C2O4) and Pd (HEDTA).

[3] = Oxalic acid 0.2 mol/L, HEDTA 0.05 mol/L, TBP 0.5 mol/L
[4] = Oxalic acid 0.2 mol/L, HEDTA 0.05 mol/L, TBP No
[5] = Oxalic acid 0.3 mol/L, HEDTA 0.05 mol/L, TBP 0.5 mol/L
[6] = Oxalic acid 0.3 mol/L, HEDTA 0.05 mol/L, TBP No
[7] = Oxalic acid No, HEDTA No, TBP 0.5 mol/L
[8] = Oxalic acid No, HEDTA No, TBP No

2-Dioctylcarbamoylmethoxy-N-[3-[3-(2-dioctylcarbamoyl-methoxyacetylamino)propoxy]propyl]acetamide [Compound 18]
Distribution coefficients Cr [1, 3]: 0.006 | Distribution coefficients Cu [1, 3]: 0.085 | Distribution coefficients Fe [1, 3]: 0.001 | Distribution coefficients Ni [1, 3]: 0.015 | Distribution coefficients Cr [1, 4]: 0.006 | Distribution coefficients Cu [1, 4]: 0.075 | Distribution coefficients Fe [1, 4]: 0.001 | Distribution coefficients Ni [1, 4]: 0.014 | Distribution coefficients Cr [1, 5]: 0.006 | Distribution coefficients Cu [1, 5]: 0.093 | Distribution coefficients Fe [1, 5]: 0.009 | Distribution coefficients Ni [1, 5]: 0.015 | Distribution coefficients Cr [1, 6]: 0.006 | Distribution coefficients Cu [1, 6]: 0.083 | Distribution coefficients Fe [1, 6]: 0.001 | Distribution coefficients Ni [1, 6]: 0.014 | Distribution coefficients Cr [1, 7]: 0.006 | Distribution coefficients Cu [1, 7]: 0.067 | Distribution coefficients Fe [1, 7]: 0.001 | Distribution coefficients Ni [1, 7]: 0.014 | Distribution coefficients Cr [1, 8]: 0.006 | Distribution coefficients Cu [1, 8]: 0.064 | Distribution coefficients Fe [1, 8]: 0.001 | Distribution coefficients Ni [1, 8]: 0.014

2-Dioctylcarbamoylmethoxy-N-[3-[(2-dioctylcarbamoyl-methoxy-acetylamino)methyl]benzyl]acetamide [Compound 4]
Distribution coefficients Dy [2, 3]: 86 | Distribution coefficients Sb [2, 3]: 0.012 | Distribution coefficients Sn [2, 3]: 0.0087 | Distribution coefficients Tb [2, 3]: 54 | Distribution coefficients Te [2, 3]: 0.0012 | Distribution coefficients Dy [2, 4]: 171 | Distribution coefficients Sb [2, 4]: 0.011 | Distribution coefficients Sn [2, 4]: 0.0076 | Distribution coefficients Tb [2, 4]: 153 | Distribution coefficients Te [2, 4]: 0.0014 | Distribution coefficients Dy [2, 5]: 184 | Distribution coefficients Sb [2, 5]: 0.011 | Distribution coefficients Sn [2, 5]: 0.0072 | Distribution coefficients Tb [2, 5]: 77 | Distribution coefficients Te [2, 5]: 0.0011 | Distribution coefficients Dy [2, 6]: 195 | Distribution coefficients Sb [2, 6]: 0.012 | Distribution coefficients Sn [2, 6]: 0.0092 | Distribution coefficients Tb [2, 6]: 107 | Distribution coefficients Te [2, 6]: 0.0012 | Distribution coefficients Dy [2, 7]: 64 | Distribution coefficients Sb [2, 7]: 0.011 | Distribution coefficients Sn [2, 7]: 0.0089 | Distribution coefficients Tb [2, 7]: 57 | Distribution coefficients Te [2, 7]: 0.0012 | Distribution coefficients Dy [2, 8]: 141 | Distribution coefficients Sb [2, 8]: 0.012 | Distribution coefficients Sn [2, 8]: 0.0073 | Distribution coefficients Tb [2, 8]: 123 | Distribution coefficients Te [2, 8]: 0.0011
